According to patent US20220211695A1, “MORPHINE-INDUCED RESPIRATORY DEPRESSION: BEHAVIORAL, PHRENIC AND BRAINSTEM RESPIRATORY NEURONAL EVIDENCE” (GEORGIA STATE UNIVERSITY RESEARCH FOUNDATION, INC., priority 2019, published 2022):

Experiments:
Sprague Dawley rats = experiment: Plethysmography of breathing after repetitive (chronic) morphine administrations, with or without cloperastine
Source text: A major adverse effect of the chronic use of opioid drugs is respiratory depression causing a […] in the United States. Via μ-Opioid receptors (MOR), respiratory neurons in the brainstem are known to be the targets, especially those in the ventral respiratory column (VRC). However, how the VRC neurons react to chronic opioid drugs remains elusive. To understand how chronic morphine exposures affect brainstem respiratory motor output, we performed these studies in Sprague Dawley rats, using repetitive morphine administrations. […] Since the MOR is coupled to GIRK channels, we applied Cloperastine, a GIRK channel blocker and a commercial OTC drug, to the rats before or after chronic morphine.
Disclosed herein are methods for treating chronic morphine exposures and how this exposure affects brainstem respiratory motor output. Disclosed herein are studies using Sprague Dawley rats, during which repetitive morphine administrations were conducted.

[1] = tested on: rostral ventral respiratory group (rVRG) neurons; experiment: Extracellular recording of firing activity of respiratory neurons in the ventral respiratory group; type: in vivo, Sprague Dawley rats
Method: Firing activity of respiratory neurons was recorded extracellularly in the ventral respiratory group.

phrenic discharges [2] = conditions: rat, in vivo
phrenic discharges [3] = experiment: Phrenic discharge recording in spontaneously breathing rats after decerebration
[4] = 50 mg/kg morphine followed by 30 mg/kg cloperastine

Clc1ccc(C(OCCN2CCCCC2)c2ccccc2)cc1 (stereo not drawn) [cloperastine]
erratic breathing (FIG. 8) (Sprague Dawley rats; 30 mg/kg cloperastine injected after 10 mg/kg morphine): reduction in erratic breathing | erratic breathing (FIG. 11) (Sprague Dawley rats; 30 mg/kg cloperastine injected first, then 10 mg/kg morphine): reduction in erratic breathing | effect on chronic morphine-induced central hypoventilation (Sprague Dawley rats; cloperastine applied before or after chronic morphine): reverses hypoventilation mainly by suppression the irregularity of breathing amplitude and frequency | time at which a significant change in normalized minute ventilation occurs (FIG. 16) (Sprague Dawley rats; cloperastine given at 20 minutes post morphine): about 45 minutes | effect on morphine's effects on breathing frequency (FIG. 13) (Sprague Dawley rats; cloperastine injection after morphine, normalized time course): reducing the effects of morphine of breathing frequency | firing activity of rVRG neurons (FIG. 31) [1, 4]: return to near normal firing activity | Te and Ti duration (FIG. 24) (phrenic discharges [2]): nearly the same as the control | Te/Ti ratio (FIG. 25) (phrenic discharges [2]): nearly identical to control | breathing frequency (FIG. 26) (phrenic discharges [2]): nearly identical to control | phrenic discharge pattern (FIG. 19) (phrenic discharges [3]; [4]): erratic phrenic activity has nearly completely subsided

CN1CC[C@]23c4c5ccc(O)c4O[C@H]2[C@@H](O)C=C[C@H]3[C@H]1C5 [morphine]
effect on breathing (minute ventilation, variation of amplitude and frequency) (Sprague Dawley rats; 10 mg/kg morphine): causes central hypoventilation with decreased breathing minute ventilation, increased variation of both breathing amplitude & frequency | breathing depression after repetitive morphine administrations (Sprague Dawley rats; chronic morphine, Sprague Dawley rats): severe breathing depression was found in these rats | time for the breathing effects to reach a plateau level (Sprague Dawley rats; repetitive morphine administrations): 3 to 4 days | duration of minute ventilation suppression (Sprague Dawley rats; same dose morphine following the chronic treatments): 3 to 4 h | suppression of minute ventilation (Sprague Dawley rats; same dose morphine following the chronic treatments, n=16 rats, plethysmography): 55.2%±4.1 | variations in tidal volume and breathing frequency (Sprague Dawley rats; same dose morphine following the chronic treatments, plethysmography): severe variations in tidal volume and breathing frequency | E-I phase-spanning neurons in the ventral respiratory group ([1]; chronic morphine versus saline injection): A large number of E-I phase-spanning neurons were observed | ectopic phrenic activity during expiration (phrenic discharges [3]; after chronic morphine exposures): Ectopic phrenic activity during expiration was seen
